Results published in patent publication US8748497B2, “Optimized fluorocarbon emulsions for blood substitutes and other therapeutic uses” (Alliance Pharmaceutical Corp., priority 2006, dated 2014).
Where two headings read alike, the source gives them in different places.

How the values were obtained:
[1] = pharmacokinetics in subjects undergoing noncardiac surgical procedures; type: in vivo, human; details: noncardiac surgery; for AUC(0-inf) / clearance / Cmax / half-life: human, whole blood; for clearance: read-out: CL (whole blood clearance) (converted); for Cmax: read-out: Cmax (maximum whole blood concentration); for half-life: read-out: T1/2 (elimination half-life) (converted)
Method: The pharmacokinetics of PFOB and PFDB were determined after the administration of the fluorocarbon emulsion of Example VI to subjects undergoing total hip replacement or spinal surgery or a variety of urologic and gynaecologic procedures including radical retropubic prostatectomy, radical hysterectomy, cystectomy and combined procedures. Human subjects in one study received either 0.9 g PFC/kg or 1.8 g PFC/kg of the fluorocarbon formulation of Example VI and those in a second study received 1.8 g PFC/kg of the fluorocarbon formulation of Example VI.

[2] = pharmacokinetics in subjects undergoing CABG surgery with hypothermic CPB; type: in vivo, human
Method: The pharmacokinetics of PFOB and PFDB were determined after the administration of the fluorocarbon formulation taught in Example VI to human subjects undergoing coronary artery bypass grafting or CABG surgery with hypothermic cardiopulmonary bypass. In group 1 and in group 2, human subjects received the fluorocarbon emulsion (2.7 g PFC/kg) as taught in Example VI directly into the bypass oxygenator after being put on bypass but before cooling was begun. In group 4, subjects received 2.7 g PFC/kg of the fluorocarbon emulsion of Example VI directly into the bypass oxygenator either prior to aortic cannulation or after being put on bypass, but before cooling was begun.

[3] = Phase 1 pharmacokinetics in healthy human volunteers; type: in vivo; details: human, blood; for AUC(0-t) / half-life: intravenous; for AUC(0-t): read-out: AUC (0-336); for half-life: read-out: t1/2. 12 h (initial elimination half-life within the first 12 h post dose) (converted); for Cmax: iv, healthy volunteers
Method: Two randomised, controlled, double-blind, parallel group, Phase 1 studies were conducted in healthy human patients with the fluorocarbon emulsion made according to Example VI. Blood and expired air samples were analysed for PFOB and PFDB after a single intravenous dose of 1.2 or 1.8 g PFC/kg of the fluorocarbon emulsion of Example VI in healthy human volunteers to determine pharmacokinetics. Blood samples were collected up to 336 hours post-dosing.

[4] = pharmacokinetics in blood after single intravenous administration of the emulsion of Ex. VI; type: in vivo, Sprague Dawley rats; details: for half-life: Sprague-Dawley, rat, iv; for half-life / AUC(o-last) / AUC(o-∞) / Cl: blood; for Vd: terminal phase
Source text: (§1) This study was designed to assess the pharmokinetics and tissue distribution of PFOB and PFDB following a single intravenous administration of the emulsion of Ex. VI at various time intervals at dose levels of 1.8 and 3.6 g PFC/k in male and female Sprague Daley rats, aged 7-9 weeks, weight between 190-267 grams. For pharmacokinetics, 160 rats were divided into 20 groups (N=4 rats/sex/dose/time interval) and for tissue distribution, 156 rats were divided into 26 groups (n=3 rats/sex/dose/time interval). The time intervals for pharmacokinetics blood sampling were 0.083, 0.5, 1, 3, 6, 12, 36, 48, 72 and 96 hours. The time intervals for tissue sampling was predose, 24 hours, 1, 2, 4, 8, 13, 17, 21, 26, 39, 52 and 72 weeks.
Six pharmacokinetic parameters were determined following a single intravenous dose of 1.8 gPFC/kg or 3.6 g PFC/kg in both the male and female rats as shown in the tables below.

[5] = tissue distribution after single intravenous administration of the emulsion of Ex. VI, GC headspace; type: in vivo, Sprague Dawley rats; details: 24 hours; for concentration at 24 h: Sprague-Dawley, rat, intravenous
Source text: as §1
26 groups (N=3 rats/sex/group). Prior to euthanasia, body weights were recorded. At designated times (see below), rats were anesthetized with METOFANE® and esanguinated via the abdominal artery. Blood was collected into syringes containing EDTA and transferred into sealed plastic containers for storage at approximately −20° C. until analyzed. Resultant data were included in the determination of pharmacokinetic parameters. The following tissues were collected from each rat and placed in sealed containers and stored frozen at −20° C. Prior to freezing, blood and tissue samples were processed for analysis. PFOB and PFDB were quantified in blood and tissues using a GC headspace method validated by Oread. The method was validated in the liver and then cross validated to all other tissues, blood, and serum. The tissues collected and analyzed include heart, lungs, abdominal fat, spleen, liver, mesenteric lymph nodes, kidneys, adrenals, testes, ovaries, uterus, whole brain, eyes, skeletal muscle, femoral bone marrow, and gastrointestinal tract.
The concentration of PFOB and PFDB was determined in the tissues in both sexes at 12 time points. For the males, this was a total of 360 individual results including blood. There were 24 additional results for the female.

[6] = four compartment model; cited from earlier work
[7] = 1.2 g PFC/kg, Table VII, 1.2 g PFC/kg
[8] = 1.2 g PFC/kg, Table VIII, 1.2 g PFC/kg
[9] = 1.8 g PFC/kg, Table VII, 1.8 g PFC/kg
[10] = 1.8 g PFC/kg, Table VIII, 1.8 g PFC/kg
[11] = female rats, 1.8 g PFC/kg single iv
[12] = female rats, 3.6 g PFC/kg single iv
[13] = male rats, 1.8 g PFC/kg single iv
[14] = male rats, 3.6 g PFC/kg single iv

AUC(0-inf) ([1]; 0.9 g PFC/kg): 13300 µg·h/mL
clearance ([1]; 0.9 g PFC/kg): 1.61 mL/min/kg
Cmax ([1]; 0.9 g PFC/kg): 7680 µg/mL
half-life ([1]; 0.9 g PFC/kg): 2.36 ± 3.06 h
AUC(0-inf) ([1]; 1.8 g PFC/kg): 57400 µg·h/mL
clearance ([1]; 1.8 g PFC/kg): 0.703 mL/min/kg
Cmax ([1]; 1.8 g PFC/kg): 17500 µg/mL
half-life ([1]; 1.8 g PFC/kg): 3.77 ± 2.69 h
whole blood concentration relative to PFDB [1]: approximately 30 fold
whole blood concentration relative to PFDB [2]: ~30 fold
AUC(0-inf) ([2]; human, whole blood, other: directly into the bypass oxygenator, 2.7 g PFC/kg): 300000 µg·h/mL
clearance ([2]; human, whole blood, other: directly into the bypass oxygenator, 2.7 g PFC/kg, read-out: CL (whole blood clearance) (converted)): 0.165 mL/min/kg
Cmax ([2]; human, whole blood, other: directly into the bypass oxygenator, 2.7 g PFC/kg, read-out: Cmax (maximum whole blood concentration)): 30300 µg/mL
half-life ([2]; human, whole blood, other: directly into the bypass oxygenator, 2.7 g PFC/kg, read-out: T1/2 (elimination half-life) (converted)): 7.65 ± 2.71 h
AUC(0-t) [3, 7]: 10.2 µg·h/mL
half-life [3, 7]: 6.55 ± 2.06 h
AUC(0-t) [3, 8]: 79200 µg·h/mL
half-life [3, 8]: 5.41 h
AUC(0-t) [3, 9]: 285000 µg·h/mL
half-life [3, 9]: 10.5 ± 2.1 h
AUC(0-t) [3, 10]: 239000 µg·h/mL
half-life [3, 10]: 7.66 h
Cmax ([3]; 1.2 g PFC/kg, Table VII, 1.2 g PFC/kg single iv): 13600 µg/mL
Cmax ([3]; 1.2 g PFC/kg, Table VIII, 1.2 g PFC/kg single iv): 12600 µg/mL
Cmax ([3]; 1.8 g PFC/kg, Table VII, 1.8 g PFC/kg single iv): 22700 µg/mL
Cmax ([3]; 1.8 g PFC/kg, Table VIII, 1.8 g PFC/kg single iv): 21800 µg/mL
half-life ([4]; both sexes, 1.8 g/kg, male and female rats, 1.8 g PFC/kg, read-out: average terminal t1/2 (converted)): ~73 h
half-life ([4]; both sexes, 3.6 g/kg, male and female rats, 3.6 g PFC/kg, read-out: average terminal t1/2 (converted)): 181 h
AUC(o-last) [4, 11]: 126.86 mg·h/g
AUC(o-∞) [4, 11]: 126.89 mg·h/g
Cl [4, 11]: 5.41 g/h/kg
Vd [4, 11]: 1605.67 g/kg
AUC(o-last) [4, 12]: 541.55 mg·h/g
AUC(o-∞) [4, 12]: 541.58 mg·h/g
Cl [4, 12]: 6.70 g/h/kg
Vd [4, 12]: 1182.97 g/kg
half-life ([4]; female, 1.8 g/kg, female rats, 1.8 g PFC/kg single iv, last 3 or 4 data points, read-out: T1/2 (converted)): 78.5 h
half-life ([4]; female, 3.6 g/kg, female rats, 3.6 g PFC/kg single iv, last 3 or 4 data points, read-out: T1/2 (converted)): 123 h
AUC(o-last) [4, 13]: 122.65 mg·h/g
AUC(o-∞) [4, 13]: 122.69 mg·h/g
Cl [4, 13]: 6.01 g/h/kg
Vd [4, 13]: 1443.18 g/kg
AUC(o-last) [4, 14]: 566.13 mg·h/g
AUC(o-∞) [4, 14]: 566.15 mg·h/g
Cl [4, 14]: 8.93 g/h/kg
Vd [4, 14]: 2191.83 g/kg
half-life ([4]; male, 1.8 g/kg, male rats, 1.8 g PFC/kg single iv, last 3 or 4 data points, read-out: T1/2 (converted)): 68.2 h
half-life ([4]; male, 3.6 g/kg, male rats, 3.6 g PFC/kg single iv, last 3 or 4 data points, read-out: T1/2 (converted)): 238 h
concentration in the liver and bone marrow ([5]; all four groups): greater than 10 mg/g
percent of dose in liver ([5]; female rats, 1.8 g PFC/kg): approximately 63%
percent of dose in spleen ([5]; female rats, 1.8 g PFC/kg): approximately 4%
percent of dose in liver ([5]; female rats, 3.6 g PFC/kg): approximately 53%
percent of dose in spleen ([5]; female rats, 3.6 g PFC/kg): < 1%
concentration at 24 h ([5]; female, females 1.8 g PFC/kg, all tissues except the blood, eyes, and skeletal muscle, read-out: concentration in tissues): > 100000 ng/g
concentration at 24 h ([5]; female, females 3.6 g/kg of PFC, all tissues, read-out: concentration in tissues): > 100000 ng/g
percent of dose in liver ([5]; male rats, 1.8 g PFC/kg): approximately 59%
percent of dose in spleen ([5]; male rats, 1.8 g PFC/kg): < 1%
percent of dose in liver ([5]; male rats, 3.6 g PFC/kg): approximately 69%
concentration at 24 h ([5]; male, 3.6 g PFC/kg, males 3.6 PFC/kg, all tissues, read-out: concentration in tissues): > 100000 ng/g
concentration at 24 h ([5]; male, males 1.8 g/kg of PFC, all tissues except the eyes and skeletal muscles, read-out: absolute concentration in tissues): > 100000 ng/g
SMILES: FC(F)(F)C(F)(F)C(F)(F)C(F)(F)C(F)(F)C(F)(F)C(F)(F)C(F)(F)Br [PFOB, perfluorooctyl bromide]
rate constant k10 [6]: ≈ 0.000 hr^−1
rate constant k12 [6]: ≈ 0.04 hr^−1
rate constant k24 [6]: ≈ 0.006 hr^−1
rate constant k34 [6]: ≈ 0.002 hr^−1
rate constant k40 [6]: ≈ 0.07 hr^−1
rate constant k42 [6]: ≈ 0.002 hr^−1
